Data from paper PMC5400251, “Effect of quinoline based 1,2,3-triazole and its structural analogues on growth and virulence attributes of Candida albicans” (PLoS ONE, 2017).
In brackets after ≈: the same amount, converted by molar mass.

What was measured:
ergosterol biosynthesis = assay: Ergosterol estimation assay
proteinase secretion [1] = assay: Proteinase assay (BSA agar, Pz value); type: cell-based, C. albicans D15.9 (FLC-resistant); settings: for Decrease of proteinase secretion: at MIC, 1 h exposure
Procedure: (§1) Following incubation, 1.5 mL of the yeast culture was taken into micro centrifuge tubes and centrifuged at 3000 rpm, for 5 min. The pellet obtained was washed by phosphate buffer saline (PBS) twice to remove the residual medium. […] Volumes of 1μL were placed at equidistant points on proteinase agar medium (0.1% yeast nitrogen base w/o amino acids; 0.145% ammonium sulfate; 2% glucose with 0.2% (w/v) BSA fraction V mixed into agar at ∼40°C) and incubated at 37°C for 3 days. The experiment was performed in duplicate. Secreted proteinase enzyme will degrade BSA and form zone of clearance around the yeast colonies. An index (Pz value) was used to represent the extent of proteinase activity by different strains of C. albicans. A Pz value of 1.0 depicts no enzyme activity. It was calculated as follows: Pzvalue=diameterofcolony/diameterofcolony+diameterofzoneofdegradation

[2] = biological target: T1, plasma membrane H+ ATPase (Candida albicans, UniProt P28877); assay: Measurement of intracellular pH (pHi); type: cell-based, C. albicans D15.9 (FLC-resistant); settings: 100 μg/mL; untreated 6.4
T1 construct: endogenous in cells; host or cells: C. albicans ATCC 90028; clinical isolates C. albicans D27 (FLC-susceptible) and D15.9 (FLC-resistant); mid-log phase whole cells
Procedure: In yeast cells, plasma membrane H^+-ATPase helps to maintain internal pH between 6.0 and 7.5. Intracellular pH (pHi) was measured as reported earlier by Manzoor et al.. Mid-log phase cells were harvested from SD medium and washed thrice with PBS. Subsequently, cells (0.1 g) were suspended in 5 mL solution of 0.1 M KCl, and 0.1 mM CaCl2 in distilled water. Compounds 3a and 3b were added to the suspension at a desired concentration of 100 μg/mL. […] Initial pH of the suspension was adjusted to 7.0 in each case and incubated for 30 min at 37°C with constant stirring. After incubation, the pH of suspension was again adjusted to 7.0 followed by the addition of nystatin (20 μM) and incubation at 37°C for 1 h. The change in pH of the suspension was monitored on a pH meter with constant stirring. The value of external pH at which nystatin permeabilization induced no further shift was taken as an estimate of pHi.

phospholipase secretion = assay: Phospholipase assay (egg yolk agar, Pz value); type: cell-based, C. albicans ATCC 90028
Procedure: Phospholipase activity was performed using the method of Price et al. (1982) with minor modifications. The cells were incubated at 37°C for 18 h and then centrifuged at 3000 rpm for 5 min. The pellet obtained was washed with PBS twice to remove the residual culture medium. […] Volumes of 1 μL were placed at equidistant points on phospholipase agar media plates (1% peptone; 3% glucose; 5.73% NaCl; 0.055% CaCl2 with 10% (v/v) egg yolk emulsion) and incubated at 37°C for 4 days. The secretion of phospholipases was determined by the formation of opaque zones due to precipitation around the yeast colonies. The assay was conducted in duplicate. Pz values were calculated as follows: Pzvalue=diameterofcolony/diameterofcolony+diameterofzoneofprecipitaion

C. tropicalis ATCC 750 = assay: Broth dilution IC50 determination; type: cell-based; settings: Candida tropicalis, ATCC750, SD broth, 37°C, 24 h, OD 600 nm, read-out: Anti-Candida Activity (IC50± S.D.) C. tropicalis ATCC750
Procedure: (§2) Broth dilution technique was employed to determine the IC50 values of all the synthesized 1,2,3 triazole derivatives (3a-c) against C. albicans ATCC 90028, C. glabrata ATCC 90030, C. tropicalis ATCC 750 and four clinical isolates of C. albicans namely D27, D31, D39 (FLC-sensitive) and D15.9 (FLC-resistant). The strains were maintained on yeast extract:peptone:dextrose ([…]) nutrient agar (2.5%) slants at 4°C. The test compounds were dissolved in DMSO with less than 4% concentration of it in the final test volume. Different concentrations (1000… 7.8 μg/mL) of test compounds in Sabouraud dextrose (SD) broth medium were dispensed into the wells, then inoculated with the test organism with approx. 2.5 × 10^3 cells/mL and incubated at 37°C for 24 h. After incubation period, the optical density was measured at 600 nm by using Thermo Scientific Multiskan Go plate reader. […] All the experiments were done in triplicate at separate times.

[3] = tested on: C. albicans D39 (FLC-sensitive clinical isolate); assay: Broth dilution IC50 determination; type: cell-based; settings: Candida albicans, 24 h; read-out: Anti-Candida Activity (IC50± S.D.) C. albicans D39
Procedure: as §2

[4] = tested on: C. albicans D27 (FLC-sensitive clinical isolate); assay: Broth dilution IC50 determination; type: cell-based; settings: Candida albicans, 24 h; read-out: Anti-Candida Activity (IC50± S.D.) C. albicans D27
Procedure: as §2

C. glabrata ATCC 90030 = assay: Broth dilution IC50 determination; type: cell-based; settings: Nakaseomyces glabratus, ATCC90030, SD broth, 37°C, 24 h, OD 600 nm, read-out: Anti-Candida Activity (IC50± S.D.) C. glabrata ATCC90030
Procedure: as §2

C. albicans = assay: Disk diffusion assay, appearance of zones (strains not distinguished); type: cell-based
Procedure: Disk diffusion assay was performed using C. albicans ATCC 90028 (standard), the two clinical isolates, C. albicans D27 (FLC-susceptible), and C. albicans D15.9 (FLC-resistant) for the lead inhibitors 3a and 3b. The C. albicans cells were inoculated into liquid SD medium and grown over night at 37°C. The cells were then centrifuged at 3000 rpm for 5 min, washed three times with PBS and then suspended in PBS again. Approximately, 10^5 cells/mL were inoculated into molten SD agar medium at 42°C and poured into 100-mm-diameter petriplates. Sterilized 4 mm disks of Whatman paper were placed on solid agar and 1, 2, and 4 μL of 3a and 2, 4, and 8 μL of 3b from the stock solution of 10 mg/mL were spotted on the disk. […] The diameter of zone of inhibition (ZOI) was recorded in millimetres after 48 h and was compared with that of control. This experiment was repeated thrice and values were shown in terms of mean ±standard error of mean.

[5] = tested on: C. albicans D15.9 (FLC-resistant clinical isolate); assay: Broth dilution IC50 / MIC determination; type: cell-based; settings: Candida albicans; for IC50: 24 h, read-out: Anti-Candida Activity (IC50± S.D.) C. albicans D15.9
Procedure: as §2

proteinase secretion [6] = assay: Proteinase assay (BSA agar, Pz value); type: cell-based, C. albicans ATCC 90028; settings: at MIC, 1 h exposure
Procedure: as §1

T1 sequence (P28877 whole entry): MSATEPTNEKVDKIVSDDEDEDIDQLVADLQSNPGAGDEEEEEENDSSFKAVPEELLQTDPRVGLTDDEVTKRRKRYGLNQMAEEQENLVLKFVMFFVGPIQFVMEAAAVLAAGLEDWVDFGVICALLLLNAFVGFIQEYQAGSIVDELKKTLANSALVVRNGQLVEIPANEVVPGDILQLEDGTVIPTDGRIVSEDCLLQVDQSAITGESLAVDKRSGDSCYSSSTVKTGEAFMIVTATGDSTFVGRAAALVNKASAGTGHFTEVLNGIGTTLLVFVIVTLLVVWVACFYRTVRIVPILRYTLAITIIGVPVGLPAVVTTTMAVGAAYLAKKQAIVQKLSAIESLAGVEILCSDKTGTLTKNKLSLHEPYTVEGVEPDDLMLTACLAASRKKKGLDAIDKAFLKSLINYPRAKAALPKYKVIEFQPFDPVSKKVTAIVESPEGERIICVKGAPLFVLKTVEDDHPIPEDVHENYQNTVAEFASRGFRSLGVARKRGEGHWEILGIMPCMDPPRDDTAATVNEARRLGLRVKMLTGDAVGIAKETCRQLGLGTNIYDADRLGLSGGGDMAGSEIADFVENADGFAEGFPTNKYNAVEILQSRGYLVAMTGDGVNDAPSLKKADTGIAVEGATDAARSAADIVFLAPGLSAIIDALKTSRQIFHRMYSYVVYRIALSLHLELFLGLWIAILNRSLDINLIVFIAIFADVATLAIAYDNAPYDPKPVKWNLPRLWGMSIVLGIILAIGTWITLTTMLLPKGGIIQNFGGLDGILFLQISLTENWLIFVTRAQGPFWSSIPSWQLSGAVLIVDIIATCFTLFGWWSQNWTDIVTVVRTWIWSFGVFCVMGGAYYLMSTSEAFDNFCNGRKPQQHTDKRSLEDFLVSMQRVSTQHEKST

Row | SMILES | Mean decrease in total ergosterol content (ergosterol biosynthesis; above MIC/2, 16 h) [%] | Mean decrease in total ergosterol content (ergosterol biosynthesis; at MIC/4, 16 h) [%] | Decrease of proteinase secretion (proteinase secretion [1]) [%] | Intracellular pH (pHi) [2] | Phospholipase activity after treatment (phospholipase secretion; Fig 4 legend) | Decrease of phospholipase secretion (phospholipase secretion; at MIC, 1 h exposure) [%] | Decrease of phospholipase secretion (phospholipase secretion; at MIC/4, 1 h exposure) [%] | IC50 (C. tropicalis ATCC 750) [µg/mL] | IC50 [3] [µg/mL] | IC50 [4] [µg/mL] | IC50 (C. glabrata ATCC 90030) [µg/mL] | Appearance of zone around disks (clear = fungicidal nature, turbid = fungistatic nature) (C. albicans) | MIC [5] [µg/mL] | IC50 [5] [µg/mL] | Decrease of proteinase secretion (proteinase secretion [6]) [%] | Decrease of proteinase secretion (fold) (proteinase secretion [1]; Fig 4 legend)
1 | Clc1ccc(OCc2cn(Cc3ccccc3)nn2)c2ncccc12 [Compound 3b, 8-((1-Benzyl-1H-1,2,3-triazol-4-yl)methoxy)-5-chloroquinoline] | 100 | 33 | 23.5 | 4.7 | No phospholipase activity | 68 | 32 | 23.6 ± 0.83 (≈ 67.3 µM) | 47.1 ± 0.39 (≈ 134 µM) | 33.7 ± 1.51 (≈ 96.1 µM) | 73.3 ± 1.41 (≈ 209 µM) | turbid | 250 (≈ 713 µM) | 32.8 ± 1.25 (≈ 93.5 µM) | 14 | 
2 | c1ccc(Cn2cc(COc3cccc4cccnc34)nn2)cc1 [Compound 3a] | 100 | 48 | 45 | 5.4 |  | 43 | 40 | 3.6 ± 0.07 (≈ 11.4 µM) | 4.1 ± 0.02 (≈ 13 µM) | 1.9 ± 0.09 (≈ 6.01 µM) | 12.02 ± 0.02 (≈ 38 µM) | clear | 25 (≈ 79 µM) | 2.3 ± 0.05 (≈ 7.27 µM) | 21 | two fold
